Reference: article PMC5891061, “Electrophysiological mechanisms of vandetanib-induced cardiotoxicity: Comparison of action potentials in rabbit Purkinje fibers and pluripotent stem cell-derived cardiomyocytes” (PLoS ONE, 2018)

Assays:
hiPSC-CMs = assay: Spontaneous action potential recording in hiPSC-CMs (whole-cell current clamp); assay type: cell-based, human
Protocol: The hiPSC-CMs from human fibroblast cell lines (iCell Cardiomyocytes; Cellular Dynamics International, Madison, WI, USA) were purchased and cultured for single-cell electrophysiological recordings. Frozen vials of hiPSC-CMs were thawed in a water bath maintained at 37°C and mixed with ice-cold plating medium (iCell Cardiomyocyte Plating Medium, glucose-free). The cells were transferred to four-well culture plates containing 0.1% gelatin-coated glass coverslips and then maintained in a culture incubator at 37°C in an atmosphere of 93% air and 7% CO2. After 2 days of culture, the plating medium was replaced with culture medium (iCell Cardiomyocyte Maintenance Medium, glucose-free), which was then changed every 2 days. The hiPSC-CMs were cultured for 4 weeks and used at 7 to 28 days post-thaw for electrophysiological analysis. At this time, the amplitudes and intervals of the spontaneous APs are stabilized, and electrically connected syncytial layers are formed. […] The internal solution contained (in mM) 120 K-Asp, 20 KCl, 5 NaCl, 2 CaCl2, 10 HEPES, 5 EGTA, and 5 Mg-ATP (pH 7.25). We recorded typical APs in hiPSC-CMs in the current-clamp mode. The spontaneous beating activity or paced firing of single hiPSC-CMs were recorded, and only hiPSC-CMs that could beat stably were included in the analysis. Following stabilization of the AP waveforms, the average of six recorded APs for each test concentration was analyzed.
Using the patch-clamp technique, we measured the APs in spontaneously contracting cells isolated from hiPSC-CMs. […] Ventricular-type APs were distinguished based on the relatively more negative maximal diastolic potential (MDP) and rapid AP upstroke with long plateau phase.

KCNQ1/KCNE1 (IKs) = biological target: T1, KCNQ1/KCNE1 (IKs) (Homo sapiens, UniProt P51787); assay: Whole-cell patch clamp, IKs in KCNQ1/KCNE1-cotransfected HEK293 cells; assay type: cell-based; conditions: for IKs current: HEK293
T1 construct: expressed in transfected cells; host or cells: HEK293
From the text: For various aspects of cardiac ion channel study, human embryonic kidney (HEK293; ATCC, Manassas, VA, USA) cells were transiently transfected using lipofectAmin2000 (Gibco BRL, New York, NY, USA) according to the manufacturer’s instructions. The hERG (human ether-ago-go-related gene corresponding to IKr), KCNQ1/KCNE1 (the gene corresponding to IKs), KCNJ2 (the gene corresponding to IK1) or SCN5A (the gene corresponding to INa) cDNA was co-transfected with green fluorescence protein, the surface marker protein, to allow assessment of the transfection efficiency. For the calcium current, enzymatically isolated single rat ventricular myocytes were used. Briefly, the hearts were rapidly excised from anaesthetized Sprague–Dawley rats (250–350 g) and perfused via the aorta on a Langendorff apparatus with an oxygenated normal Tyrode (NT) solution for 5 min. To clear the blood, then perfused with Ca^2+-free normal Tyrode solution for 3 min. Next, the heart was perfused with enzyme solution containing 0.6 mg/mL collagenase (Worthington Biomedical Corp., Lakewood, NJ, USA) for 30–40 min. Finally, this enzyme-containing solution was washed out for 5 min. with a high-K^+ and low-Cl^-) Kraft-Bruhe solution. Following the isolation procedure, the left ventricle was dissected out and agitated mechanically with a fire-polished Pasteur pipette in Kraft-Bruhe solution to obtain single myocytes. The isolated myocytes were stored at 4°C until use.
The external solution for recording the IhERG, IKs and INa channel currents was NT solution. The internal solution for IhERG contained the following (in mM): 130 KCl, 5 EGTA, 10 HEPES, 1 MgCl2, 5 Mg-ATP (pH 7.25 with KOH), and for IKs in the KCNQ1/KCNE1-cotransfected HEK293 cells, 150 KCl, 5 EGTA, 10 HEPES, 2 MgCl2, 1 CaCl2 and 5 Na2-ATP (pH adjusted 7.25 with KOH). […] The calcium current was measured in naïve rat ventricular myocytes, cells were superfused with an external solution that consisted of (in mM): 137 choline-Cl, 5 CsCl, 0.5 MgCl2, 2 4-AP, 10 HEPES, 10 glucose and 1.8 CaCl2 (pH 7.4 with NaOH), whereas the intracellular solution used to fill the pipette had the following ionic solution (in mM): 20 CsCl, 100 Cs-aspartate, 10 EGTA, 10 HEPES, 20 TEA-Cl, 5 Mg-ATP (pH 7.25 with KOH). […]
pCLAMP (Axon Instruments, Foster City, CA, USA), Origin 8 (OriginLab Corp, Northampton, MA, USA), and Excel (Microsoft, Redmond, WA, USA) were used for data acquisition and analysis. The concentration–response relationships for drug-induced blockage were calculated using SigmaPlot (Systat Software, San Jose, CA, USA). […] Statistical significance was determined using the Student’s t-test and one-way ANOVA with post hoc testing using Dunnett’s method; p < 0.05 was considered to indicate statistical significance. […]

`COc1cc2c(Nc3ccc(Br)cc3F)ncnc2cc1OCC1CCN(C)CC1` [Vandetanib] gave an APA (hiPSC-CMs; 0.3 μM) of 104.2 ± 3.0 mV, an APD50 (hiPSC-CMs; 0.3 μM) of 349.3 ± 50.9 ms and an APD90 (hiPSC-CMs; 0.3 μM) of 481.0 ± 53.9 ms. The MDP (hiPSC-CMs; 0.3 μM) was -66.9 ± 2.3 mV, the Vmax (hiPSC-CMs; 0.3 μM) was 40.3 ± 13.9 V/s and the APA (hiPSC-CMs; 1 μM) was 105.5 ± 3.6 mV. The APD50 (hiPSC-CMs; 1 μM) was 596.4 ± 158.8 ms, the APD90 (hiPSC-CMs; 1 μM) was 880.9 ± 192.6 ms and the MDP (hiPSC-CMs; 1 μM) was -64.5 ± 2.4 mV. The Vmax (hiPSC-CMs; 1 μM) was 36.0 ± 13.0 V/s, the APA (hiPSC-CMs; 3 μM) was 100.7 ± 2.2 mV and the APD50 (hiPSC-CMs; 3 μM) was 1243.0 ± 386.1 ms. The APD90 (hiPSC-CMs; 3 μM) was 2047.9 ± 597.1 ms, the “Decrease of APA compared to vehicle control” value (hiPSC-CMs; 3 μM) was 4.2% and the “Decrease of MDP compared to vehicle control” value (hiPSC-CMs; 3 μM) was 9%. For the same molecule, the MDP (hiPSC-CMs; 3 μM) was -61.0 ± 1.5 mV, the Vmax (hiPSC-CMs; 3 μM) was 19.5 ± 6.5 V/s and the “Early after depolarization (EAD)” value (hiPSC-CMs; 3 μM, n = 6 cells) was “induced at 3 μM of vandetanib in all cells tested”. For the same molecule, the “Concentration from which prolongation of APD50 and APD90 was observed” value (hiPSC-CMs; tested 0.3, 1, 3 μM) was at least 1 µM, the IKs current (KCNQ1/KCNE1 (IKs); 10 μM) was 840.7 ± 180.3 and the IKs current (KCNQ1/KCNE1 (IKs); 30 μM) was 406.5 ± 113.7. For the same molecule, the IKs current (KCNQ1/KCNE1 (IKs); 100 μM) was 108.2 ± 8.3 and the IC50 (KCNQ1/KCNE1 (IKs); HEK293 cells) was 28 ± 1.81 µM.
